Values quoted from earlier work, collected in patent US20240139276A1, “HAIR GROWTH AGENT” (ADJUVANT HOLDINGS CO., LTD., priority 2021, published 2024).

Experiments:
[1] = test system: vascular endothelial growth factor (VEGF) expression in human dermal papilla cells; settings: adenosine allowed to act on human dermal papilla cells
[2] = test system: fibroblast growth factor 7 (FGF-7) expression in human dermal papilla cells; settings: adenosine allowed to act on human dermal papilla cells

In the case of `Nc1ncnc2c1ncn2[C@@H]1O[C@H](CO)[C@@H](O)[C@H]1O` [adenosine], the “expression of vascular endothelial growth factor (VEGF)” value [1] is listed as “promotes expression of vascular endothelial growth factor (VEGF)” and the “expression of fibroblast growth factor 7 (FGF-7)” value [2] is listed as “also promotes expression of fibroblast growth factor 7 (FGF-7)”.
